Data published in patent publication US8557844B2, “Substrate reduction therapy” (The Chancellor, Masters and Scholars of the University of …, priority 2007, dated 2013).
“Also recorded” adds a separate entry of the source.

Experiments:
[1] = system: mammalian cells; conditions: liposomes of dioleoylphosphatidylethanolamine and cholesteryl hemisuccinate; cited from earlier work
[2] = system: NPC1 null (CT43) CHO cells; conditions: NB-DNJ treatment; cited from earlier work
[3] = system: peripheral blood B lymphocytes; conditions: NPC patient, B cells over 6 months; cited from earlier work
[4] = interim data after 12 months of a 2-year trial; cited from earlier work
[5] = cited from earlier work
[6] = system: NPC1 null (CT43) CHO cells; conditions: NB-DNJ treatment; cited from earlier work; remark: listed apart in the source
[7] = system: GSL levels; conditions: mice; cited from earlier work
[8] = system: RAW mouse macrophages; test: BODIPY-LacCer transport in RAW cells treated with AY9944; format: cell-based
Description: (§1) RAW mouse macrophages grown in medium supplemented with LPDS for 5 days to elevate endogenous cholesterol biosynthesis were treated with […] AY9944 in medium supplemented with lipoprotein deficient serum (LPDS) for a further 5 or 10 days to induce storage of 7-DHC. […] This correlated with abnormal transport of a fluorescent GSL analogue of lactosylceramide (LacCer)—BODIPY-LacCer.
(§2) FIG. 4 consists of micrographs which together show the induction of an NPC phenotype in cholesterol null RAW cells. All RAW cells were grown in medium supplemented with LPDS for 5 days (controls) to reduce exogenously derived cholesterol prior to addition of 1 μM AY9944 to inhibit endogenous cholesterol synthesis for a further 5 days or 10 days (as indicated). Alterations in sphingolipid trafficking were measured in live cells using BODIPY-LacCer (lower panels), cholesterol levels in fixed cells were measured with filipin (upper panels). Endocytic cholesterol storage in cholesterol depleted cells was induced by growth in medium supplemented with 10% FCS for a further 24 h. For each condition n=2, images are representative of at least 10 captured fields, scale bar=5 μm.

[9] = molecular target: T1, 3β-hydroxysterol Δ7-reductase (Mus musculus, UniProt O88455); conditions: cited from earlier work
T1 construct: RAW mouse macrophages grown in medium supplemented with LPDS for 5 days to elevate endogenous cholesterol biosynthesis; endogenous in cells; host or cells: RAW mouse macrophages
T1 sequence (O88455 1-471): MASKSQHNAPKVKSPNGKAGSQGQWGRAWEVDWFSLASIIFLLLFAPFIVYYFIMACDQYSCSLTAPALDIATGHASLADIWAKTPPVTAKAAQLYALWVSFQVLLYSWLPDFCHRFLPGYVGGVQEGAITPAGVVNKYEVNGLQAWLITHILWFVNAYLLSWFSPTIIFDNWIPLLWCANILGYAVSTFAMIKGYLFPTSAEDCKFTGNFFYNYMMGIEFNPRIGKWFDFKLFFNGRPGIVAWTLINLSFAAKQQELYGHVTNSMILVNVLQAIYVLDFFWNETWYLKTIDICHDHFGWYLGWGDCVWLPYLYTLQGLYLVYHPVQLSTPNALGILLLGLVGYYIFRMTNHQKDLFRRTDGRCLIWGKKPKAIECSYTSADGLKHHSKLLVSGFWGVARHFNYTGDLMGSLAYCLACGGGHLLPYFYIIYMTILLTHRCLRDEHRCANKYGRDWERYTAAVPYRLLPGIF

[10] = system: RAW mouse macrophages; test: Cholesterol levels (filipin) in RAW cells treated with AY9944; format: cell-based; conditions: for cholesterol levels (filipin): 1 mM AY9944 in LPDS medium
Description: as §1, §2

[11] = system: sialyltransferase; conditions: cited from earlier work
[12] = system: free cholesterol storage and abnormal lipid endocytosis; conditions: cited from earlier work
[13] = molecular target: T2, rat recombinant α-2,6-ST (Rattus norvegicus, UniProt P13721); conditions: rat recombinant enzyme; read-out: IC(50), α-2,6-ST; cited from earlier work
T2 sequence (P13721 1-403): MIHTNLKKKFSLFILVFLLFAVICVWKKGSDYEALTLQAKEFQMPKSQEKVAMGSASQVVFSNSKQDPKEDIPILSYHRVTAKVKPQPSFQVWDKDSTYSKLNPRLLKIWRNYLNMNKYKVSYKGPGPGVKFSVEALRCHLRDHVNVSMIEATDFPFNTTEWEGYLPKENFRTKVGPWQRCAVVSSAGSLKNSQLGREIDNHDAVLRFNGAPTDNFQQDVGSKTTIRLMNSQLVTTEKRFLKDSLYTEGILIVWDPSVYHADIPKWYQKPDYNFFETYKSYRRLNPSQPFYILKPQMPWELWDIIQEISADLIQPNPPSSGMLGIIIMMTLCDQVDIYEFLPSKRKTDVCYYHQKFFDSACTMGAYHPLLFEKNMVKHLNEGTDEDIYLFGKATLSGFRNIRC

[14] = system: rat recombinant α-2,3-ST; conditions: rat recombinant enzyme; read-out: IC(50), α-2,3-ST; cited from earlier work
[15] = molecular target: T3, human α-1,3-fucosyltransferase V (Homo sapiens, UniProt Q11128); conditions: in the presence of guanosine diphosphate (GDP); cited from earlier work
T3 sequence (Q11128 1-374): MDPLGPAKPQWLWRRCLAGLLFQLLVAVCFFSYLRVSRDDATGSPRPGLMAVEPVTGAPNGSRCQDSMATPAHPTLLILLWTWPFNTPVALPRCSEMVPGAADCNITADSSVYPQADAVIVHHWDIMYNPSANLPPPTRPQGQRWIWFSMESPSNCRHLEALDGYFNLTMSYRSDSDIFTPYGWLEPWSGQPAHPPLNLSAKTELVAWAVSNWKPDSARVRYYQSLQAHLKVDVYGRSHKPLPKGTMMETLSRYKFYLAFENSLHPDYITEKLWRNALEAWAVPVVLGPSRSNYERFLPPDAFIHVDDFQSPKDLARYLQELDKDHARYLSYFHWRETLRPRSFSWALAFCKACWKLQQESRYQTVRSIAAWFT

CCCCN1C[C@H](O)[C@@H](O)[C@H](O)[C@H]1CO [NB-DNJ, N-butyldeoxynojirimycin]
factor by which liposomes reduced the required dose [1]: 1000 | GSL storage in NPC1 cells [2]: reduction in GSL storage in the endo/lysosomal system; also recorded: lowers GSL storage in NPC1 cells to control levels | endosomal uptake [3]: improved endosomal uptake | lipid trafficking in peripheral blood B lymphocytes [3]: greatly improved | pathological lipid storage [3]: reduced | total late endosomal/lysosomal compartment [3]: almost normalised | clinical benefit, saccadic eye movement [4]: stabilization or improvement in saccadic eye movement | neurological side effects ([5]; adult mice): not to cause neurological side effects | CNS penetration ([5]; mouse, in vivo): penetrate the CNS | effects on behaviour or CNS development ([5]; mouse, in vivo): without significant effects on behaviour or CNS development | endocytosis in NPC1 cells [6]: corrects abnormal endocytosis | decrease in GSL levels (onset) [7]: measurable decrease in GSL levels within a day of treatment | treatment time after which effect on GSL levels stabilizes [7]: 10 days

Clc1ccccc1CNCC1CCC(CNCc2ccccc2Cl)CC1 (centres unmarked) [AY9944]
BODIPY-LacCer transport ([8]; 5 days post AY9944, 30 min pulse, 90 min chase): transported to the Golgi | BODIPY-LacCer transport ([8]; 10 days post AY9944): trapped in punctate LE/Lys | 7-DHC level [9]: accumulation of 7-DHC | cholesterol levels (filipin) ([10]; 5 days): slight decrease in cholesterol levels | cholesterol levels (filipin) ([10]; 10 days): markedly reduced | localisation of exogenously derived cholesterol ([10]; 10 day AY9944, then medium with 10% FCS): exogenously derived cholesterol became trapped in punctate LE

C[C@@H]1O[C@@H](O[C@H]2[C@H](O[C@H]3[C@H](O[C@H]4CC[C@@]5(C)[C@@H](CC[C@]6(C)[C@@H]5CC=C5[C@@H]7CC(C)(C)C[C@@H](O)[C@]7(C)CC[C@]56C)[C@@]4(C)CO)O[C@H](C(=O)O)[C@@H](O)[C@@H]3O)O[C@H](CO)[C@H](O)[C@@H]2O)[C@H](O)[C@H](O)[C@H]1O [Soyasaponin I]
sialyltransferase inhibition [11]: potent and specific sialyltransferase inhibitor

CC(C)CCC[C@@H](C)[C@H]1CC[C@H]2[C@@H]3C(=O)C=C4C[C@@H](O)CC[C@]4(C)[C@H]3CC[C@]12C [7-ketocholesterol]
free cholesterol storage and lipid endocytosis [12]: induce free cholesterol storage and abnormal lipid endocytosis

CN(C)CCCN1c2ccccc2CCc2ccccc21 [imipramine]
free cholesterol storage and lipid endocytosis [12]: induce free cholesterol storage and abnormal lipid endocytosis

CCN(CC)CCO[C@H]1CC[C@@]2(C)C(=CC[C@@H]3[C@@H]2CC[C@]2(C)C(=O)CC[C@@H]32)C1 [Compound U18666A]
free cholesterol storage and lipid endocytosis [12]: induce free cholesterol storage and abnormal lipid endocytosis | induction of NPC1 phenotype [12]: can induce an NPC1 phenotype

cytidin-5′-yl sialylethylphosphonate
IC50 [13]: 340 µM | IC50 [14]: 47 µM

CCCO[C@H]1O[C@H](CO)[C@@H](O[C@@H]2O[C@H](CO)[C@H](O)[C@H](O)[C@H]2O)[C@H](OCCN2C(C)C(O)C(O)C(O)C2CO)[C@H]1NC(C)=O (stereo partly drawn) [propyl 2-acetamido-2-deoxy-4-O-(β-D-galactopyranosyl)-3-O-(2-(N-(β-L-homofuconojirimycinyl))ethyl)-α-D-glucopyranoside]
inhibition of human α-1,3-fucosyltransferase V [15]: effective inhibitor

CC(=O)[C@H]1CC[C@H]2[C@@H]3CCC4=CC(=O)CC[C@]4(C)[C@H]3CC[C@]12C [progesterone]
free cholesterol storage and lipid endocytosis [12]: induce free cholesterol storage and abnormal lipid endocytosis | induction of NPC1 phenotype [12]: can induce an NPC1 phenotype
